Test results reported in patent US12544431B2, “Peptides for the treatment of cancer and/or metastasis” (BCN PEPTIDES, S.A., priority 2019, dated 2026).
“Also recorded” adds a separate entry of the source. Read-outs that look alike come from different tables or passages of the source. Marks after values point to notes of the source that are not given here. Each block holds one molecule with its values, some of them ahead of it. *1 amine or outer side, *2 acyl side, *3 side chain or, on linkers, in order; H or OH if unused. Where a SMILES comes first, the peptide text is derived from it. [ ]: non-standard residue; d: D form. The star is where a group is joined. Phe(2,4,6-Me3) = Cc1cc(C)c(C[C@H](N)C(=O)O)c(C)c1; X1 = Cc1cc(C)c(CC(N[*:1])C(=O)[*:2])c(C)c1; pGlu = O=C1CC[C@@H](C(=O)O)N1; Octanoyl = CCCCCCCC(=O)*

How the values were obtained:
[1] = In vitro stability, half-life in human plasma; assay type: in vitro ADME; conditions: 90% human plasma, 37° C., RP-HPLC, read-out: t½ (hours) in human plasma (converted)
Procedure: The peptides and peptide dimer synthesized and prepared in accordance with Example 1 were dissolved in water at a concentration of 6 mg/mL and warmed up to 37° C.
Human plasma was obtained as a lyophilized solid (K3 EDTA Plasma, BBI Solutions, code S112-1), reconstituted with sterile 0.9% sodium chloride solution and stored at −20° C. Human plasma was thawed and incubated at 37° C. before use.
The peptides and peptide dimer were incubated in 90% human plasma at 37° C. for different times and then precipitated with two volume equivalents of methanol. The samples were cooled in an acetone-carbon dioxide bath for a few seconds and centrifuged for 12 minutes at 4° C. at approximately 10,000 rpm. The supernatant was filtered with a 0.45 μm PVDF filter and analyzed in triplicate by RP-HPLC using an isocratic method (Eluent A=0.1% TFA in water; Eluent B=0.07% TFA in ACN, Column=Kromasil C8, 100 Å, 5 μm, 250×4.6 mm, Flow=1 mL/min, Wavelength: 220 nm, Injection volume=20 μL, Temperature=60° C.). The disappearance of the compound was determined in relation to the area of the initial time to calculate its half-life.

[2] = tested on: RH30 rhabdomyosarcoma cells; experiment: Matrigel-coated transwell invasion assay, RH30 cells; assay type: cell-based; conditions: % invasive cells vs non-treated control
Procedure: (§1) 10^5 RH30 or RD cells were plated in the upper chamber of a Matrigel-coated transwell (Corning) in 0.1 mL medium without FBS. Cells were previously incubated with different concentrations (0 nM, 100 nM, 200 nM, 500 nM and 1000 nM) of the peptides and peptide dimer for 48 hours, being also present in the medium during the cell invasion assay. In the lower chamber, 0.6 mL of medium with FBS was added. Cells were incubated at 37° ° C. for 24 hours.
(§2) After that, cells were fixed with 4% paraformaldehyde (Sigma) for 10 minutes, followed by washing with PBS. After removal of the Matrigel and remaining cells from the upper face of the membrane with a cotton swab, the cells present on the lower face were stained with a Hoechst dilution (Sigma) and were counted (5 fields for each well) with an inverted fluorescence microscope Nikon with a 10× objective. All experiments were made in triplicate. In Table 6 the % Invasiveness represents the mean percentage of invasive cells with respect to their controls.

[3] = tested on: RD rhabdomyosarcoma cells; experiment: Matrigel-coated transwell invasion assay, RD cells; assay type: cell-based; conditions: % invasive cells vs non-treated control
Procedure: as §1, §2

[4] = tested on: CHLA-90 neuroblastoma cells; experiment: Transwell invasion assay, CHLA-90 cells; assay type: cell-based
Procedure: as §1, §2
(§3) The transwell assay with CHLA-90 and BE(2)-C cell lines was done following the same conditions detailed for determining the % of invasiveness in rhabdomyosarcoma cells.
(§4) The transwell assay with neuroblastoma cell lines (CHLA-90, BE(2)-C and SK—N-BE(2)-C)) and breast cancer cell lines (MDA-MB-231 and MDA-MB-468) was performed at the same conditions detailed for determining the % of invasiveness in rhabdomyosarcoma cells.

[5] = tested on: BE(2)-C neuroblastoma cells; experiment: Transwell invasion assay, BE(2)-C cells; assay type: cell-based
Procedure: as §1, §2, §3, §4

[6] = tested on: RD rhabdomyosarcoma cells; experiment: Rhabdomyosarcoma metastatic mice model (RD cells i.v. in tail vein); assay type: in vivo, SCID/Beige mice; conditions: for event-free survival vs vehicle group (in words): 27-week study; for Absence of metastases, number of mice / Absence of metastases, percentage of mice / Presence of metastases (%), percentage of mice / Presence of metastases, number of mice: 27 weeks; for body weight, treated vs vehicle-treated mice (in words): along the 27-week study; for reduction in metastases formation: vs PBS-treated mice
Procedure: SCID/Beige female mice aged of 5 weeks were administered subcutaneously (s.c.) at day −1 with the first dose of treatment i.e. the vehicle (PBS, Phosphate buffered saline) or the peptides. On day 0, mice were injected intravenously (i.v.) in the tail vein with 2×10^6 RD rhabdomyosarcoma cells.
Body weight was evaluated twice per week for 27 weeks. Overall survival and event-free survival were determined. At necropsy, the total number of metastases were quantified and the number of metastases per mice and their localization were also reported.

[7] = 500 nM peptide, listed as SEQ ID NO: 6—NH2
[8] = 0.5 mg/kg s.c. three times per week
[9] = 2 mg/kg s.c. three times per week

Molecule: Cc1cc(C)c(C[C@H](NC(=O)[C@H](CCC(=O)O)NC(=O)[C@@H]2CCCN2C(=O)[C@H](CC(C)C)NC(=O)[C@H](CC(=O)O)NC(=O)[C@H](CS)NC(=O)[C@H](CO)NC(=O)[C@H](CC(N)=O)NC(=O)[C@H](CO)NC(=O)[C@H](CO)NC(=O)[C@H](CC(=O)O)NC(=O)[C@H](CCCNC(=N)N)NC(=O)[C@H](CCCCN)NC(=O)[C@@H]2CCC(=O)N2)C(=O)N[C@@H](CCCCN)C(N)=O)c(C)c1 [SEQ ID NO: 6-NH2, Pyr-Lys-Arg-Asp-Ser-Ser-Asn-Ser-Cys-Asp-Leu-Pro-Glu-Msa-Lys-NH2] ([pGlu]KRDSSNSCDLPE[Phe(2,4,6-Me3)]K-NH2)
half-life at 0.6 mg/mL [1]: 0.17 h | % Invasiveness RH30 ([2]; 100 nM peptide): 54.67% | % Invasiveness RH30 ([2]; 500 nM peptide): 22.77* % | % Invasiveness RH30 [2, 7]: significant reduction | % Invasiveness RD ([3]; 100 nM peptide): 39.45% | % Invasiveness RD ([3]; 500 nM peptide): 39.98% | % Invasiveness CHLA-90 ([4]; 100 nM peptide): 75.90% | % Invasiveness CHLA-90 ([4]; 200 nM peptide): 55.22* % | % Invasiveness CHLA-90 ([4]; 200 nM peptide, listed as SEQ ID NO: 6—NH2): significant reductions | % Invasiveness CHLA-90 ([4]; 500 nM peptide): 44.58* % | % Invasiveness CHLA-90 ([4]; 1000 nM peptide): 49.00* % | % Invasiveness BE(2)-C ([5]; 100 nM peptide): 60.08% | % Invasiveness BE(2)-C ([5]; 200 nM peptide): 59.04% | % Invasiveness BE(2)-C ([5]; 500 nM peptide): 31.17* % | % Invasiveness BE(2)-C [5, 7]: significant reductions | % Invasiveness BE(2)-C ([5]; 1000 nM peptide): 23.54* % | event-free survival vs vehicle group (in words) ([6]; 0.5 mg/kg (lower dose), listed as SEQ ID NO: 6—NH2): did not show a significant effect | event-free survival vs vehicle group (in words) ([6]; 0.5 mg/kg (lower dose), listed as SEQ ID NO:6—NH2): did not show statistically significant difference | Absence of metastases, number of mice [6, 8]: 1 | Absence of metastases, percentage of mice [6, 8]: 17% | Presence of metastases (%), percentage of mice [6, 8]: 83% | Presence of metastases, number of mice [6, 8]: 5 | body weight, treated vs vehicle-treated mice (in words) ([6]; 0.5 mg/kg): vehicle-treated mice showed a statistically significant lower body weight | reduction in metastases formation ([6]; 0.5 mg/kg): ~15% | number of metastases per mouse vs vehicle (in words) ([6]; 2 mg/kg (higher dose), at necropsy): statistically reduced the formation of metastases per mouse; also recorded: efficacious in the reduction of the number of metastases | Absence of metastases, number of mice [6, 9]: 1 | Absence of metastases, percentage of mice [6, 9]: 14% | Presence of metastases (%), percentage of mice [6, 9]: 86% | Presence of metastases, number of mice [6, 9]: 6 | event-free survival vs vehicle group (in words) ([6]; 2 mg/kg, Log-rank): did not show statistically significant difference | body weight, treated vs vehicle-treated mice (in words) ([6]; 2 mg/kg): vehicle-treated mice showed a statistically significant lower body weight | reduction in metastases formation ([6]; 2 mg/kg): ~15%

half-life at 0.6 mg/mL [1]: 3.6 h
Molecule: CCCCCCCC(=O)N[C@@H](CCCCN)C(=O)N[C@@H](CCCNC(=N)N)C(=O)N[C@@H](CC(=O)O)C(=O)N[C@@H](CO)C(=O)N[C@@H](CO)C(=O)N[C@@H](CC(N)=O)C(=O)N[C@@H](CO)C(=O)N[C@@H](CCSC)C(=O)N[C@@H](CC(=O)O)C(=O)N[C@@H](CC(C)C)C(=O)N1CCC[C@H]1C(=O)N[C@@H](CCC(=O)O)C(=O)NC(Cc1c(C)cc(C)cc1C)C(=O)N[C@@H](CCCCN)C(N)=O (stereo partly drawn) [Octanoyl-SEQ ID NO: 8-NH2, Octanoyl-Lys-Arg-Asp-Ser-Ser-Asn-Ser-Met-Asp-Leu-Pro-Glu-Msa-Lys-NH2] (Octanoyl-KRDSSNSMDLPE[X1]K-NH2)
% Invasiveness RH30 ([2]; 100 nM peptide): 88.38% | % Invasiveness RH30 ([2]; 200 nM peptide): 99.30% | % Invasiveness RH30 ([2]; 500 nM peptide): 71.92% | % Invasiveness RH30 ([2]; 1000 nM peptide): 74.06% | % Invasiveness RD ([3]; 100 nM peptide): 75.55% | % Invasiveness RD ([3]; 200 nM peptide): 113.22% | % Invasiveness RD ([3]; 500 nM peptide): 63.27% | % Invasiveness RD ([3]; 1000 nM peptide): 15.89* % | % Invasiveness RD ([3]; 1000 nM peptide, listed as Octanoyl-SEQ ID NO: 8—NH2): significant decrease

half-life at 0.6 mg/mL ([1]; human plasma (K3 EDTA)): 0.32 h
Molecule: Ac-RDSSNSCDLPEF-NH2 [Ac-SEQ ID NO: 10-NH2, Ac-Arg-Asp-Ser-Ser-Asn-Ser-Cys-Asp-Leu-Pro-Glu-Phe-NH2, reference compound]
% Invasiveness RH30 ([2]; 100 nM peptide): 83.91% | % Invasiveness RH30 ([2]; 500 nM peptide): 113.68% | % Invasiveness RD ([3]; 100 nM peptide): 106.77% | % Invasiveness RD ([3]; 500 nM peptide): 59.90%
